Test results reported in patent US8273880B2, “Pyrazole compounds with inhibitory activity against ROS kinase” (Korea Institute of Science and Technology, priority 2009, dated 2012).
pIC50: −log10 of the molar value. “Also recorded” adds a separate entry of the source.

Experiments:
Type in all cases: biochemical
ROS kinase = ROS kinase (Homo sapiens, UniProt P08922); assay: ROS kinase screening (HotSpot, IC50 mode); design: purchased Reaction Biology Corporation; conditions: 10-dose IC50 mode starting from 20 μM; 10 μM ATP; read-out: Inhibitory Activity against ROS (IC50)
Sequence of ROS kinase (P08922 28-2347): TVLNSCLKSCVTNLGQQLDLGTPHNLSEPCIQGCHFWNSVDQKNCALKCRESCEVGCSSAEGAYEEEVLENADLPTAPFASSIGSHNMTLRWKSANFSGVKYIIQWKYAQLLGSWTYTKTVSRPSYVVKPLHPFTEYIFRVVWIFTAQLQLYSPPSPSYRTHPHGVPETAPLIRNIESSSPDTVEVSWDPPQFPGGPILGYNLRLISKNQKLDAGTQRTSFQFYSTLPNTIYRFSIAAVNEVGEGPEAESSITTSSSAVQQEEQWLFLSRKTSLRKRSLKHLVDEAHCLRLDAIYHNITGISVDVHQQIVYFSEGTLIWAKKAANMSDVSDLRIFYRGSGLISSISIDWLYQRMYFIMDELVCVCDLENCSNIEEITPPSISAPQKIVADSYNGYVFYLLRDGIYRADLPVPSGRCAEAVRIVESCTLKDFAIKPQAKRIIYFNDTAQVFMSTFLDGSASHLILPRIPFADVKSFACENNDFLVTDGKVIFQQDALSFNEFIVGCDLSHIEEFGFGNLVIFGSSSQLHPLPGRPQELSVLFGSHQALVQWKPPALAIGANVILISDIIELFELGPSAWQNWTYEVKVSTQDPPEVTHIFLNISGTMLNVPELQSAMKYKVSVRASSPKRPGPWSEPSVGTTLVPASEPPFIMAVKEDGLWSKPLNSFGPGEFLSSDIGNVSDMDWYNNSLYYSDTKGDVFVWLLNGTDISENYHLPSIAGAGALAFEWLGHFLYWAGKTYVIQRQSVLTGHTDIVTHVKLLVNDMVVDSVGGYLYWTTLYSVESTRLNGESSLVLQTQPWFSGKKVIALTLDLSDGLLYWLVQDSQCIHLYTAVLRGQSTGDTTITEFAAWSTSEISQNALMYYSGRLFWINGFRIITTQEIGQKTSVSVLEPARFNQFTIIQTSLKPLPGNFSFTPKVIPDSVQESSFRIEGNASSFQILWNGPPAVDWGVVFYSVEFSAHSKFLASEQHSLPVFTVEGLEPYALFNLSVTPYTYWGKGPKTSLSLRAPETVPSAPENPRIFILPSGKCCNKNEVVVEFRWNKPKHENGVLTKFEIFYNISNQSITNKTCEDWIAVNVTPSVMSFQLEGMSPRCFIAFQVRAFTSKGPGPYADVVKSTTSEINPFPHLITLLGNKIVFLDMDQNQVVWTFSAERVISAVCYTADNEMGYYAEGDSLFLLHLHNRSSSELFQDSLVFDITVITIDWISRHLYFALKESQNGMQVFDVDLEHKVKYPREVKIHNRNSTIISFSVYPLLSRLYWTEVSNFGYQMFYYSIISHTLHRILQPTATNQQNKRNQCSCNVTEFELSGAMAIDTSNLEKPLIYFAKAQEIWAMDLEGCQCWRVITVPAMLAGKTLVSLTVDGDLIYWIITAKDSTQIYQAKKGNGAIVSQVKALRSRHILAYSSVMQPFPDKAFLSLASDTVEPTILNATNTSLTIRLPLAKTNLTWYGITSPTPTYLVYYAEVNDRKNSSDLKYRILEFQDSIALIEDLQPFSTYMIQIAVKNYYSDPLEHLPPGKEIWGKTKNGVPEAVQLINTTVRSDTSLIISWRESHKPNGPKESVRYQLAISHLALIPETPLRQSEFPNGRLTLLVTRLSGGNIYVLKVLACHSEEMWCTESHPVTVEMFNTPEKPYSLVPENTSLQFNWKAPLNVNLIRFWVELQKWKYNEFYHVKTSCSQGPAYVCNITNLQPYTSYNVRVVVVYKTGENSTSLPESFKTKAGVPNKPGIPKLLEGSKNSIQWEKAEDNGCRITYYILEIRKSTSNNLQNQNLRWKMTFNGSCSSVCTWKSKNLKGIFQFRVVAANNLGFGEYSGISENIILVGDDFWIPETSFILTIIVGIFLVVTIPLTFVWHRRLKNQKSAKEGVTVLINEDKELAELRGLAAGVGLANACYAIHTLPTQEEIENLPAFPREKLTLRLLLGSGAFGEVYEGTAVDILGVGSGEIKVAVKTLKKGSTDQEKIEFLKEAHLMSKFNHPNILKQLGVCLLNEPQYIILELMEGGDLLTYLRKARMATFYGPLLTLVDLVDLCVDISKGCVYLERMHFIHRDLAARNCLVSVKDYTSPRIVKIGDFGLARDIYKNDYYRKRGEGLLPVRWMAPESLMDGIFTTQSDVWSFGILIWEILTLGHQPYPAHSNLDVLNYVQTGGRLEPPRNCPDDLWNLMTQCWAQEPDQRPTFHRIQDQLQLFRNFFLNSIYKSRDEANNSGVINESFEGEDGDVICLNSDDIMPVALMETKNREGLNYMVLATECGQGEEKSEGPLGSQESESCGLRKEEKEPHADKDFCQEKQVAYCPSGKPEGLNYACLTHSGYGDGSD
Protocol: (§1) Kinase screening was performed using a “HotSpot” assay platform commercially available from Reaction Biology Corporation. For this kinase screening, reaction buffers were based on 20 mM Hepes (pH 7.5), 10 mM MgCl2, 1 mM EGTA, 0.02% Brij35, 0.02 mg/mL BSA, 0.1 mM Na3VO4, 2 mM DTT, and 1% DMSO, with supplementary factors necessary for respective kinase reactions added thereto. In each enzyme reaction, […] of each kinase was used together with a fresh reaction buffer and appropriate supplementary factors. A solution of each compound in DMSO was added in a suitable concentration to the reaction buffer. Kinase reaction started with the introduction of […] (specific activity […]) and continued for 2 hours at room temperature.
The reaction was performed with 10 μM ATP.

45 different kinases = assay: Kinase selectivity from screening over 45 different kinases
Protocol: as §1
(§2) 1) Screening of Compounds Over 45 Different Kinases
(§3) Each compound was tested twice at a single dose concentration of 10 μM. […] The reaction was performed with 10 μM ATP.

Ros/Ros1 = target: T1, Ros/Ros1 (Homo sapiens, UniProt P08922); assay: HotSpot kinase screening over 45 different kinases, single dose 10 μM; conditions: single dose concentration of 10 μM, 10 μM ATP
T1 construct: purchased Reaction Biology Corporation
T1 sequence (P08922 28-2347): as above
Protocol: as §1, §2, §3

CDK1/cyclinB = target: T2, CDK1/cyclinB (Homo sapiens, UniProt P06493); assay: as above; conditions: single dose concentration of 10 μM, 10 μM ATP
T2 construct: purchased Reaction Biology Corporation
Protocol: as §1, §2, §3

c-Kit = target: T3, c-Kit (Homo sapiens, UniProt P10721); assay: as above; conditions: single dose concentration of 10 μM, 10 μM ATP
T3 construct: purchased Reaction Biology Corporation
Protocol: as §1, §2, §3

BRAF = target: T4, BRAF (Homo sapiens, UniProt P15056); assay: as above; conditions: single dose concentration of 10 μM, 10 μM ATP
T4 construct: purchased Reaction Biology Corporation
Protocol: as §1, §2, §3

FGR = target: T5, FGR (Homo sapiens, UniProt P09769); assay: as above; conditions: single dose concentration of 10 μM, 10 μM ATP
T5 construct: purchased Reaction Biology Corporation
T5 sequence (P09769 whole entry): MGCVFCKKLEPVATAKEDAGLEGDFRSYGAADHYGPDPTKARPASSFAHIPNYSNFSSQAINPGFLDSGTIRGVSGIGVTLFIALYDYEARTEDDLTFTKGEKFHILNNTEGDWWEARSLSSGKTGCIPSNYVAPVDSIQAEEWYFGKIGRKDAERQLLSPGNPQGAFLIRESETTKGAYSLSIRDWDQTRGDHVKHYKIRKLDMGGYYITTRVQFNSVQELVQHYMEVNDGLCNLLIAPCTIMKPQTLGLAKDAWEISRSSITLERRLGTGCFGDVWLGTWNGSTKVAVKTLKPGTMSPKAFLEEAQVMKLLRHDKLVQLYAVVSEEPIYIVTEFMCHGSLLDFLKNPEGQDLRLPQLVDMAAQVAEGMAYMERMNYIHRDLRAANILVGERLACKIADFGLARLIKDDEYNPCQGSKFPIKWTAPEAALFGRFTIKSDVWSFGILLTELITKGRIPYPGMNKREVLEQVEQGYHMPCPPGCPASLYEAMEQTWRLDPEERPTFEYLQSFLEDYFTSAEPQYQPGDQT
Protocol: as §1, §2, §3

p70S6K = target: T6, p70S6K (Homo sapiens, UniProt P23443); assay: as above; conditions: single dose concentration of 10 μM, 10 μM ATP
T6 construct: purchased Reaction Biology Corporation
Protocol: as §1, §2, §3

MEK1 = target: T7, MEK1 (Homo sapiens, UniProt Q02750); assay: as above; conditions: single dose concentration of 10 μM, 10 μM ATP
T7 construct: purchased Reaction Biology Corporation
Protocol: as §1, §2, §3

TIE2/TEK = target: T8, TIE2/TEK (Homo sapiens, UniProt Q02763); assay: as above; conditions: single dose concentration of 10 μM, 10 μM ATP
T8 construct: purchased Reaction Biology Corporation
Protocol: as §1, §2, §3

HIPK1 = target: T9, HIPK1 (Homo sapiens, UniProt Q86Z02); assay: as above; conditions: single dose concentration of 10 μM, 10 μM ATP
T9 construct: purchased Reaction Biology Corporation
Protocol: as §1, §2, §3

CK1epsilon = target: T10, CK1epsilon (Homo sapiens, UniProt P49674); assay: as above; conditions: single dose concentration of 10 μM, 10 μM ATP
T10 construct: purchased Reaction Biology Corporation
Protocol: as §1, §2, §3

RET = target: T11, RET (Homo sapiens, UniProt P07949); assay: as above; conditions: single dose concentration of 10 μM, 10 μM ATP
T11 construct: purchased Reaction Biology Corporation
Protocol: as §1, §2, §3

Aurora A = target: T12, Aurora A (Homo sapiens, UniProt O14965); assay: as above; conditions: single dose concentration of 10 μM, 10 μM ATP
T12 construct: purchased Reaction Biology Corporation
Protocol: as §1, §2, §3

PIM1 = target: T13, PIM1 (Homo sapiens, UniProt P11309); assay: as above; conditions: single dose concentration of 10 μM, 10 μM ATP
T13 construct: purchased Reaction Biology Corporation
Protocol: as §1, §2, §3

FYN = target: T14, FYN (Homo sapiens, UniProt P06241); assay: as above; conditions: single dose concentration of 10 μM, 10 μM ATP
T14 construct: purchased Reaction Biology Corporation
T14 sequence (P06241 whole entry): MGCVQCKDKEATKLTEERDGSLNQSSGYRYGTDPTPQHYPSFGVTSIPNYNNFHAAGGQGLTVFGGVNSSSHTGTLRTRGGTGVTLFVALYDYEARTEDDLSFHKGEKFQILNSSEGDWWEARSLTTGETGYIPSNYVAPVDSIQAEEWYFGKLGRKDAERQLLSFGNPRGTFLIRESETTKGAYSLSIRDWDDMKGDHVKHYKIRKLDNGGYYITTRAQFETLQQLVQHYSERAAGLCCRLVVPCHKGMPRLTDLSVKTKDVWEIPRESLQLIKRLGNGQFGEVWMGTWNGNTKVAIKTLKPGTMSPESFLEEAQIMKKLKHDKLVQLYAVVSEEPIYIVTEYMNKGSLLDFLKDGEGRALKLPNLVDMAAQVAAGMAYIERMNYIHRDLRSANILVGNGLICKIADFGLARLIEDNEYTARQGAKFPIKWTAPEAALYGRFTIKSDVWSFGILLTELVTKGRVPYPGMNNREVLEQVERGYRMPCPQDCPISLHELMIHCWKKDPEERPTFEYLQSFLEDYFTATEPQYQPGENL
Protocol: as §1, §2, §3

JAK1 = target: T15, JAK1 (Homo sapiens, UniProt P23458); assay: as above; conditions: single dose concentration of 10 μM, 10 μM ATP
T15 construct: purchased Reaction Biology Corporation
Protocol: as §1, §2, §3

PLK1 = target: T16, PLK1 (Homo sapiens, UniProt P53350); assay: as above; conditions: single dose concentration of 10 μM, 10 μM ATP
T16 construct: purchased Reaction Biology Corporation
T16 sequence (P53350 whole entry): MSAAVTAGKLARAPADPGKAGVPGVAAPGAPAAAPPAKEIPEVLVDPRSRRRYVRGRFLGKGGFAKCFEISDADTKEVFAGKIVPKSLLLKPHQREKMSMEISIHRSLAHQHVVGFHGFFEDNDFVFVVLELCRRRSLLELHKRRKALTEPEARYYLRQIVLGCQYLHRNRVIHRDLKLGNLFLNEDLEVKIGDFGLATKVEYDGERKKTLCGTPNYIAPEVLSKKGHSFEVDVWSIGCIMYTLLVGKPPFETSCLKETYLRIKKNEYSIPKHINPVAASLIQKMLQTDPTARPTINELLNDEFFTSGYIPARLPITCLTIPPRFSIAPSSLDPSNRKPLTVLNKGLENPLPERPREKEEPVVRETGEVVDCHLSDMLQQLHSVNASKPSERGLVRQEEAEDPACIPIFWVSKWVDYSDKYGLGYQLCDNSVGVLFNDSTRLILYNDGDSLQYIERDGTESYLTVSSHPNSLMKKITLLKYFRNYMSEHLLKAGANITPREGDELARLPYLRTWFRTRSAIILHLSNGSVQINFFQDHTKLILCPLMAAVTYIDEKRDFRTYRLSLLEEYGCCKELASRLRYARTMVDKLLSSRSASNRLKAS
Protocol: as §1, §2, §3

SYK = target: T17, SYK (Homo sapiens, UniProt P43405); assay: as above; conditions: single dose concentration of 10 μM, 10 μM ATP
T17 construct: purchased Reaction Biology Corporation
Protocol: as §1, §2, §3

CHK1 = target: T18, CHK1 (Homo sapiens, UniProt O14757); assay: as above; conditions: single dose concentration of 10 μM, 10 μM ATP
T18 construct: purchased Reaction Biology Corporation
T18 sequence (O14757 whole entry): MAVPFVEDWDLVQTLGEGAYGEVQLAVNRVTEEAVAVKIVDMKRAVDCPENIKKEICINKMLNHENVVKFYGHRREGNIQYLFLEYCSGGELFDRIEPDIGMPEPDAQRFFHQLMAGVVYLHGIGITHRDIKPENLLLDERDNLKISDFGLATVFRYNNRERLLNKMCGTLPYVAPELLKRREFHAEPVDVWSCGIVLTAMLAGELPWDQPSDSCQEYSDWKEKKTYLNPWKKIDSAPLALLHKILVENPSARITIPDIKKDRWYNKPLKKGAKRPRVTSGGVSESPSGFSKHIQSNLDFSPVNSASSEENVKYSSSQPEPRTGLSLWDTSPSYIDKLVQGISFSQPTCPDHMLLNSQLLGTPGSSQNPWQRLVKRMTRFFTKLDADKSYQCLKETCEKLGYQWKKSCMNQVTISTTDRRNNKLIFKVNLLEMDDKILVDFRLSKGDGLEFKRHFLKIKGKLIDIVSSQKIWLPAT
Protocol: as §1, §2, §3

P38a/MAPK14 = target: T19, P38a/MAPK14 (Homo sapiens, UniProt Q16539); assay: as above; conditions: single dose concentration of 10 μM, 10 μM ATP
T19 construct: purchased Reaction Biology Corporation
T19 sequence (Q16539 whole entry): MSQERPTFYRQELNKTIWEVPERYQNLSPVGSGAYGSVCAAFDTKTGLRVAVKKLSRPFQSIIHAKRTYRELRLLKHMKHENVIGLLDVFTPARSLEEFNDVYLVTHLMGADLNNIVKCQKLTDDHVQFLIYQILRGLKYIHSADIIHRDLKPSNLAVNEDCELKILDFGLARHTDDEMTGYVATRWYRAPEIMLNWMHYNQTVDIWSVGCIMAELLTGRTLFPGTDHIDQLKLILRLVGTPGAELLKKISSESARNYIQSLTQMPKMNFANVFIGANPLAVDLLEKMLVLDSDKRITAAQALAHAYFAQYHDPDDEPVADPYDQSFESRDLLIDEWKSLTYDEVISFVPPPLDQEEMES
Protocol: as §1, §2, §3

AKT1 (dPH, S473D) = target: T20, AKT1 (dPH, S473D) (Homo sapiens, UniProt P31749, S473D); assay: as above; conditions: single dose concentration of 10 μM, 10 μM ATP
T20 construct: AKT1 (dPH, S473D); purchased Reaction Biology Corporation
Protocol: as §1, §2, §3

MUSK = target: T21, MUSK (Homo sapiens, UniProt O15146); assay: as above; conditions: single dose concentration of 10 μM, 10 μM ATP
T21 construct: purchased Reaction Biology Corporation
Protocol: as §1, §2, §3

YES = target: T22, YES (Homo sapiens, UniProt P07947); assay: as above; conditions: single dose concentration of 10 μM, 10 μM ATP
T22 construct: purchased Reaction Biology Corporation
Protocol: as §1, §2, §3

[1] = compared to enzyme activity in DMSO control

pIC50 (ROS kinase): 6.70
inhibition at 10 µM (Ros/Ros1): 93.9%
activity at 10 µM (Ros/Ros1; [1]): 6.08%
inhibition at 10 µM (CDK1/cyclinB): 3.64%
activity at 10 µM (CDK1/cyclinB; [1]): 96.4%
inhibition at 10 µM (c-Kit): 2.85%
activity at 10 µM (c-Kit; [1]): 97.2%
inhibition at 10 µM (BRAF): 8.97%
activity at 10 µM (BRAF; [1]): 91%
inhibition at 10 µM (FGR): 3.34%
activity at 10 µM (FGR; [1]): 96.7%
inhibition at 10 µM (p70S6K): 5.79%
activity at 10 µM (p70S6K; [1]): 94.2%
inhibition at 10 µM (MEK1): -6.97%
activity at 10 µM (MEK1; [1]): 107%
inhibition at 10 µM (TIE2/TEK): 8.17%
activity at 10 µM (TIE2/TEK; [1]): 91.8%
inhibition at 10 µM (HIPK1): -3.43%
activity at 10 µM (HIPK1; [1]): 103%
inhibition at 10 µM (CK1epsilon): 9.32%
activity at 10 µM (CK1epsilon; [1]): 90.7%
inhibition at 10 µM (RET): 6.65%
activity at 10 µM (RET; [1]): 93.3%
inhibition at 10 µM (Aurora A): 21.8%
activity at 10 µM (Aurora A; [1]): 78.2%
inhibition at 10 µM (PIM1): 5.91%
activity at 10 µM (PIM1; [1]): 94.1%
inhibition at 10 µM (FYN): -7.86%
activity at 10 µM (FYN; [1]): 108%
inhibition at 10 µM (JAK1): 9.15%
activity at 10 µM (JAK1; [1]): 90.8%
inhibition at 10 µM (PLK1): 5.85%
activity at 10 µM (PLK1; [1]): 94.2%
inhibition at 10 µM (SYK): 8.23%
activity at 10 µM (SYK; [1]): 91.8%
inhibition at 10 µM (CHK1): 2.36%
activity at 10 µM (CHK1; [1]): 97.6%
inhibition at 10 µM (P38a/MAPK14): 5.27%
activity at 10 µM (P38a/MAPK14; [1]): 94.7%
inhibition at 10 µM (AKT1 (dPH, S473D)): -2.97%
activity at 10 µM (AKT1 (dPH, S473D); [1]): 103%
inhibition at 10 µM (MUSK): -0.42%
activity at 10 µM (MUSK; [1]): 100%
inhibition at 10 µM (YES): -2.59%
activity at 10 µM (YES; [1]): 103%
SMILES: Cc1cc(O)cc(-c2nn(CC#N)cc2-c2cc(NC[C@H](C)O)nc(-c3cccnc3)n2)c1 [Example 10, [4-[6-(2(S)-hydroxypropylamino)-2-pyridin-3-yl-pyrimidin-4-yl]-3-(3-hydroxy-5-methylphenyl)-pyrazol-1-yl]acetonitrile]
Notes (selectivity for ROS) (45 different kinases): no inhibitory activity against almost all of the tested kinases, except for ROS kinase; also recorded: Selective for ROS
